Reference: patent publication US11174253B2, “Compound and pharmaceutical composition containing the same” (ALPHALA CO., LTD., priority 2017, dated 2021)

Columns and labels:
Type in all cases: cell-based
[1] = tested on: hepatocellular carcinoma cell line Hep3B; assay: Growth inhibition of Hep3B cells, 48 hr treatment, Hoechst 33342 nucleus count (GE InCell 2200); conditions: Homo sapiens
How it was run: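 Compound exposure lasted 48 hr at 37° C, 5% CO2. Surviving nuclei were counted after Hoechst 33342 staining, and survival was expressed as the treated/non-treated cell number ratio, including the ratio at 10 μM compound.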

[2] = tested on: NCI-H460 human lung cancer cell line; assay: MTS cell viability assay (NCI-60 methodology), GI50/LC50, NCI-H460; conditions: 48 h, NCI-H460 cells, 2 days incubation with compound
Experimental: (§1) The number of treated cells was determined by GE InCell 2200 system, and treated cells were stained with Hoechst 33342 which can reveal the remained nucleus in culture plate. The proportion of survival cells then were calculated with the ratio of treated/non-treated cells. The growth inhibition/cytotoxic effect of selected compounds were evaluated by the following protocol of NCI-60 screening platform. The human tumor cell lines are plating on a 96 well plate in a fixed density 24 hr prior compound treatment. Compounds with multiple concentrations are then added into each well for further 48 hr incubation. Cell viability is assessed by MTS method and the potency of compound is represented by GI50 and LC50 calculated by MTS result.
(§2) The cell viability measurement is based on the NCI-60 screening methodology (Nat. Rev. Cancer 6, 813-823, 2006). Briefly, cells are inoculated into 96-well plates at the optimal plating density. After 24 h, one of the two plates for each cell line is processed to determine a time zero cell viability (Tz) by MTS assay (Promega). Compounds are added over a 2-fold serial dilution to provide a total five drug concentrations plus DMSO control. Plates are incubated for a further 2 days, then measured cell viability by MTS assay [control growth (C) and test growth in the presence of drug at the five concentration levels (Ti)]. Growth inhibition of 50% (GI50) is calculated from [(Ti−Tz)/(C−Tz)]×100=50, which is the drug concentration resulting in a 50% reduction of control cells during the drug incubation. The LC50 is calculated from [(Ti−Tz)/Tz]×100=−50, which is the drug concentration resulting in a 50% reduction at the end of the drug treatment as compared to that at the beginning.
(§3) Herein, Hep3B refers to hepatocellular carcinoma cell line, SW480 refers to colon adenocarcinoma cell line, and NCI-H460 refers to human lung cancer cell line.

[3] = tested on: Hep3B hepatocellular carcinoma cell line; assay: MTS cell viability assay (NCI-60 methodology), GI50/LC50, Hep3B; conditions: Homo sapiens, 48 h, Hep3B cells, 2 days incubation with compound
Experimental: as §1, §2, §3

[4] = tested on: SW480 colon adenocarcinoma cell line; assay: MTS cell viability assay (NCI-60 methodology), GI50/LC50, SW480; conditions: Homo sapiens, 48 h, SW480 cells, 2 days incubation with compound
Experimental: as §1, §2, §3

[5] = Table 5, ratio of number of tumor cells treated with 10 μM compound to non-treated cells
[6] = Table 1, ratio of number of tumor cells treated with 10 μM compound to non-treated cells

Row | Structure (SMILES) | viability at 10 µM ([1]; Table 6, ratio of number of tumor cells treated with 10 μM compound to non-treated cells) [%] | GI50 [2] [nM] | GI50 [3] [nM] | LC50 [3] [nM] | GI50 [4] [nM] | viability at 10 µM [1, 5] [%] | LC50 (concentration giving 50% net cell loss versus time zero, NCI-60 definition) [2] [nM] | LC50 (NCI-60 lethal concentration, 50% net cell loss vs time zero) [4] [nM] | viability at 10 µM [1, 6] [%] | viability at 10 µM ([1]; Table 3, ratio of number of tumor cells treated with 10 μM compound to non-treated cells) [%]
1 | CCOc1ccc(-c2nc(NC(=O)c3ccc([N+](=O)[O-])s3)sc2Cc2ccccc2)cc1 [Compound 6-34, N-(5-benzyl-4-(4-ethoxyphenyl)thiazol-2-yl)-5-nitrothiophene-2-carboxamide] | 44 | 1400 | 1010 | 7530 | 2510 | – | – | – | – | –
2 | CC(C)(C)c1ccc(-c2nc(NC(=O)c3ccc([N+](=O)[O-])s3)sc2Oc2ccc(C(F)(F)F)cc2)cc1 [Compound 5-74, N-(4-(4-(tert-butyl)phenyl)-5-(4-(trifluoromethyl)phenoxy)thiazol-2-yl)-5-nitrothiophene-2-carboxamide] | – | 720 | 1160 | 1680 | 690 | 33 | 1300 | 1290 | – | –
3 | CC(C)Oc1ccccc1-c1nnc(NC(=O)Cc2ccc3nc(N)sc3c2)s1 [Compound 1-15, 2-(2-aminobenzo[d]thiazol-6-yl)-N-(5-(2-isopropoxyphenyl)-1,3,4-thiadiazol-2-yl)acetamide] | – | – | 170 | 500 | 620 | – | – | – | 56 | –
4 | O=C(Nc1nc(-c2ccc(Br)cc2)c(Oc2ccc(OC(F)(F)F)cc2)s1)c1ccc([N+](=O)[O-])s1 [Compound 5-18, N-(4-(4-bromophenyl)-5-(4-(trifluoromethoxy)phenoxy)thiazol-2-yl)-5-nitrothiophene-2-carboxamide] | – | 6400 | 3090 | 4770 | 2520 | – | – | 4750 | – | –
5 | CCOc1ccc(-c2nnc(NC(=O)Cc3ccc4nc(N)sc4c3)s2)c(OCCN(C)C)c1 [Compound 1-29, 2-(2-aminobenzo[d]thiazol-6-yl)-N-(5-(2-(2-(dimethylamino)ethoxy)-4-ethoxyphenyl)-1,3,4-thiadiazol-2-yl)acetamide] | – | 5200 | 200 | 1100 | 3340 | – | – | – | – | –
6 | Nc1nc2ccc(CC(=O)Nc3nnc(-c4ccc(Br)cc4)s3)cc2s1 [Compound 1-7, 2-(2-aminobenzo[d]thiazol-6-yl)-N-(5-(4-bromophenyl)-1,3,4-thiadiazol-2-yl)acetamide] | – | – | 3170 | 9400 | 7700 | – | – | – | – | –
7 | Cc1ccc(-c2nc(NC(=O)Cc3ccc4nc(N)sc4c3)sc2-c2ccc(F)cc2)cc1 [Compound 3-4, 2-(2-aminobenzo[d]thiazol-6-yl)-N-(5-(4-fluorophenyl)-4-(p-tolyl)thiazol-2-yl)acetamide] | – | 3020 | 2070 | – | – | – | – | – | – | –
8 | CCCCOc1ccccc1-c1nnc(NC(=O)Cc2ccc3nc(N)sc3c2)s1 [Compound 1-20, 2-(2-aminobenzo[d]thiazol-6-yl)-N-(5-(2-butoxyphenyl)-1,3,4-thiadiazol-2-yl)acetamide] | – | – | 210 | 630 | 1150 | – | – | – | 81 | –
9 | CCCOc1ccc(-c2nnc(NC(=O)Cc3ccc4nc(N)sc4c3)s2)cc1 [Compound 1-17, 2-(2-aminobenzo[d]thiazol-6-yl)-N-(5-(4-propoxyphenyl)-1,3,4-thiadiazol-2-yl)acetamide] | – | – | 600 | 890 | 1810 | – | – | – | 82 | –
10 | CCOc1ccc(-c2nnc(NC(=O)Cc3ccc4nc(N)sc4c3)s2)c(OCCOC)c1 [Compound 1-32, 2-(2-aminobenzo[d]thiazol-6-yl)-N-(5-(4-ethoxy-2-(2-methoxyethoxy)phenyl)-1,3,4-thiadiazol-2-yl)acetamide] | – | 140 | 170 | 540 | 230 | – | 600 | 690 | – | –
11 | CCCOc1ccc(-c2nc(NC(=O)c3ccc([N+](=O)[O-])s3)sc2Oc2ccc(OC(F)(F)F)cc2)cc1 [Compound 5-8, 5-nitro-N-(4-(4-propoxyphenyl)-5-(4-(trifluoromethoxy)phenoxy)thiazol-2-yl)thiophene-2-carboxamide] | – | 3010 | 3430 | – | – | 24 | 4660 | – | – | –
12 | CC(C)Oc1ccc(-c2nc(NC(=O)c3ccc([N+](=O)[O-])s3)sc2Oc2ccccc2)cc1 [Compound 5-10, N-(4-(4-isopropoxyphenyl)-5-phenoxythiazol-2-yl)-5-nitrothiophene-2-carboxamide] | – | 880 | 2530 | – | – | 29 | 5310 | – | – | –
13 | CCOc1ccc(-c2nc(NC(=O)Cc3ccc4nc(N)sc4c3)sc2-c2ccc(F)cc2)cc1 [Compound 3-9, 2-(2-aminobenzo[d]thiazol-6-yl)-N-(4-(4-ethoxyphenyl)-5-(4-fluorophenyl)thiazol-2-yl)acetamide] | – | 2390 | 2270 | – | 8950 | – | – | – | – | –
14 | CCCOc1ccc(-c2nc(NC(=O)c3ccc([N+](=O)[O-])s3)sc2Oc2ccccc2)cc1 [Compound 5-9, 5-nitro-N-(5-phenoxy-4-(4-propoxyphenyl)thiazol-2-yl)thiophene-2-carboxamide] | – | 1110 | 2430 | – | – | 32 | 2860 | – | – | –
15 | Cc1ccc(-c2nc(NC(=O)c3ccc([N+](=O)[O-])s3)sc2-c2ccc(Br)cc2)cc1 [Compound 6-2, N-(5-(4-bromophenyl)-4-(p-tolyl)thiazol-2-yl)-5-nitrothiophene-2-carboxamide] | – | – | 1270 | 1940 | 970 | – | – | 2720 | – | –
16 | CCC(CC)Oc1ccc(-c2nnc(NC(=O)Cc3ccc4nc(N)sc4c3)s2)cc1 [Compound 1-16, 2-(2-aminobenzo[d]thiazol-6-yl)-N-(5-(4-(pentan-3-yloxy)phenyl)-1,3,4-thiadiazol-2-yl)acetamide] | – | – | 2830 | 4340 | 7260 | – | – | – | 84 | –
17 | CCOc1cc(OCC)c(-c2nnc(NC(=O)Cc3ccc4nc(N)sc4c3)s2)cn1 [Compound 1-35, 2-(2-aminobenzo[d]thiazol-6-yl)-N-(5-(4,6-diethoxypyridin-3-yl)-1,3,4-thiadiazol-2-yl)acetamide] | – | 1420 | 550 | 3680 | – | – | – | – | 42 | –
18 | Cc1ccc(-c2nc(NC(=O)Cc3ccc4nc(N)sc4c3)sc2-c2ccc(Br)cc2)cc1 [Compound 3-3, 2-(2-aminobenzo[d]thiazol-6-yl)-N-(5-(4-bromophenyl)-4-(p-tolyl)thiazol-2-yl)acetamide] | – | – | 1140 | – | 7970 | – | – | – | – | 71
19 | CCCOc1ccccc1-c1nnc(NC(=O)Cc2ccc3nc(N)sc3c2)s1 [Compound 1-10, 2-(2-aminobenzo[d]thiazol-6-yl)-N-(5-(2-propoxyphenyl)-1,3,4-thiadiazol-2-yl)acetamide] | – | – | 170 | 550 | 900 | – | – | 5170 | 61 | –
